Where two headings read alike, the source gives them in different places.
Key:
[1] = molecular target: T1, human Cot catalytic domain (30-397 amino acids) (Homo sapiens, UniProt P41279); test: High Throughput Cot Biochemical Assay (KinEASE TR-FRET); conditions: read-out: IC50 HTRF
T1 construct: Purified recombinant human Cot catalytic domain (30-397 amino acids) was purchased from Cama Biosciences; purchased Cama Biosciences (so in the source)
In short: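 TR-FRET (KinEASE) read-out: Eu-labelled phospho-specific antibody binds XL665-tagged STK3 peptide (1 μM) phosphorylated by 5 nM human Cot kinase domain (residues 30-397). Reaction at 400 μM ATP, pH 7.0 MOPS buffer with 10 mM MgOAc, 1 mM DTT and 0.1% DMSO.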

[2] = tested on: TNFα production in LPS-stimulated human monocytes; test: Cot Monocyte TNFα Cell Based Assay; conditions: Homo sapiens, Monocyte, read-out: EC50 TNF
In short: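 TNFα release quantified by two-antibody TR-FRET, normalised to unstimulated (0%) and LPS-stimulated (100%) wells. Cells got a 1 h compound exposure at 37° C in 0.5% DMSO before 4 h challenge with 50 pg/ml LPS, at 5,000 cells/well.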

[3] = Cot biochemical HTRF (KinEASE TR-FRET) assay
[4] = TNFα in LPS-stimulated human monocytes
[5] = Cot KinEASE TR-FRET, 400 μM ATP
[6] = LPS-stimulated human monocytes, TNFα TR-FRET

T1 sequence (P41279 30-397): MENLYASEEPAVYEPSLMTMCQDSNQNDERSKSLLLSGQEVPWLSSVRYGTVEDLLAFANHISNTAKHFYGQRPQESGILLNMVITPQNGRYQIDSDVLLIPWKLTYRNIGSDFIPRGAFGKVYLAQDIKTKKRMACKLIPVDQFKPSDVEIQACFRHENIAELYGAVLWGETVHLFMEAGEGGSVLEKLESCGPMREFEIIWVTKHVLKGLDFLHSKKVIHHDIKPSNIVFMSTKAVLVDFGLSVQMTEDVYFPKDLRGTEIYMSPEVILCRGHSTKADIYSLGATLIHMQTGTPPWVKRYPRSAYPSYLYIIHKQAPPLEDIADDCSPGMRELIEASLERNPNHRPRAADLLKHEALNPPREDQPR

| Structure (SMILES) | IC50 [1, 3] [µM] | EC50 [2, 4] [µM] | IC50 [1, 5] [µM] | EC50 [2, 6] [µM] |
| --- | --- | --- | --- | --- |
| CCN1CCC(n2cc(C(Nc3cc(Cl)c4ncc(C#N)c(Nc5ccc(F)c(Cl)c5)c4c3)c3cc(F)c(F)c(F)c3)nn2)CC1 (stereo not shown) [Example 889, 8-chloro-4-((3-chloro-4-fluorophenyl)amino)-6-(((1-(1-ethylpiperidin-4-yl)-1H-1,2,3-triazol-4-yl)(3,4,5-trifluorophenyl)methyl)amino) quinoline-3-carbonitrile] | 0.032 | 0.362 |  |  |
| Cn1cnc(C(Nc2cc(Cl)c3ncc(C#N)c(Nc4ccc(F)c(Cl)c4)c3c2)c2ccc(Cl)cc2)c1 (stereo not shown) [Example 894, 8-chloro-4-((3-chloro-4-fluorophenyl)amino)-6-(((4-chlorophenyl)(1-methyl-1H-imidazol-4-yl)methyl)amino)quinoline-3-carbonitrile] | 0.168 | 1.75 |  |  |
| Cn1cnc(C(Nc2cc(Cl)c3ncc(C#N)c(Nc4ccc(F)c(Cl)c4)c3c2)c2ccccc2)c1 (stereo not shown) [Example 895, 8-chloro-4-((3-chloro-4-fluorophenyl)amino)-6-(((1-methyl-1H-imidazol-4-yl)(phenyl)methyl)amino) quinoline-3-carbonitrile] | 0.056 | 1 |  |  |
| CCN1CCC(n2cc(C(Nc3cc(Cl)c4ncc(C#N)c(Nc5ccc(F)c(Cl)c5)c4c3)c3cccc(F)c3)nn2)CC1 (stereo not shown) [Example 907, 8-chloro-4-((3-chloro-4-fluorophenyl)amino)-6-(((1-(1-ethylpiperidin-4-yl)-1H-1,2,3-triazol-4-yl)(3-fluorophenyl)methyl)amino) quinoline-3-carbonitrile] | 0.005 | 0.128 |  |  |
| CCN1CCC(n2cc([C@H](Nc3cc(Cl)c4ncc(C#N)c(Nc5ccc(F)c(Cl)c5)c4c3)c3ccccc3)nn2)CC1 [Example 918, (R)-8-chloro-4-((3-chloro-4-fluorophenyl)amino)-6-(((1-(1-ethylpiperidin-4-yl)-1H-1,2,3-yl)(phenyl)methyl)amino) quinoline-3-carbonitrile] |  |  | 0.194 | 8.58 |
| [2H][C@](Nc1cc(Cl)c2ncc(C#N)c(N[C@H](CCOC)c3ccccc3)c2c1)(c1ccc(F)cc1)c1cn(C2CC2)nn1 [Example 925, 8-chloro-6-(((1-cyclopropyl-1H-1,2,3-triazol-4-yl)(4-fluorophenyl)methyl-d)amino)-4-(((R)-3-methoxy-1-phenylpropyl)amino)quinoline-3-carbonitrile] |  |  | 0.01 | 0.187 |
| N#Cc1cnc2c(Cl)cc(N[C@@H](c3ccc(F)cc3)c3cn(C4CC4)nn3)cc2c1NCC12CC(C1)C2 [Example 927, (S)-4-((bicyclo[1.1.1]pentan-1-ylmethyl)amino)-8-chloro-6-(((1-cyclopropyl-1H-1,2,3-triazol-4-fluorophenyl)methyl)amino) quinoline-3-carbonitrile] |  |  | 0.034 | 0.576 |
| N#Cc1cnc2c(Cl)cc(N[C@H](c3cn(C4CC4)nn3)c3ccccc3Cl)cc2c1NCC12CC(C1)C2 [Example 928, (S)-4-((bicyclo[1.1.1]pentan-1-ylmethyl)amino)-8-chloro-6-(((2-chlorophenyl)(1-cyclopropyl-1H-1,2,3-triazol-4-yl)methyl)amino)quinoline-3-carbonitrile] |  |  | 0.068 | 0.443 |
| [2H][C@](Nc1cc(Cl)c2ncc(C#N)c(NCC(C)(C)C)c2c1)(c1ccc(Cl)cc1)c1cn(C2CCN(C(C)(C)C)CC2)nn1 [Example 929, (S)-6-(((1-(1-(tert-butyl)piperidin-4-yl)-1H-1,2,3-triazol-4-yl)(4-chlorophenyl)methyl-d)amino)-8-chloro-4-(neopentylamino)quinoline-3-carbonitrile] |  |  | 0.007 | 0.098 |
| [2H][C@@](Nc1cc(Br)c2ncc(C#N)c(N[C@H](CCC#N)c3ccccc3)c2c1)(c1cn(C2CC2)nn1)c1ccccc1Cl [Example 930, 8-bromo-6-(((S)-(2-chlorophenyl)(1-cyclopropyl-1H-1,2,3-triazol-4-yl)methyl-d)amino)-4-(((R)-3-cyano-1-phenylpropyl)amino) quinoline-3-carbonitrile] |  |  | 0.005 | 0.066 |
| [2H][C@](Nc1cc(S(C)(=O)=O)c2ncc(C#N)c(NCC(C)(C)C)c2c1)(c1ccc(F)cc1)c1cn(C2CC2)nn1 [Example 931, (S)-6-(((1-cyclopropyl-1H-1,2,3-triazol-4-yl)(4-fluorophenyl)methyl-d)amino)-8-(methylsulfonyl)-4-(neopentylamino)quinoline-3-carbonitrile] |  |  | 0.027 | 0.447 |
| [2H][C@](Nc1cc(Cl)c2ncc(C#N)c(Nc3cccc4ccccc34)c2c1)(c1ccc(F)cc1)c1cn(C2CC2)nn1 [Example 933, (S)-8-chloro-6-(((1-cyclopropyl-1H-1,2,3-triazol-4-yl)(4-fluorophenyl)methyl-d)amino)-4-(naphthalen-1-ylamino) quinoline-3-carbonitrile] |  |  | 0.314 | ≥ 1 |
| [2H][C@](Nc1cc(Cl)c2ncc(C#N)c(Nc3cccc(Cl)c3C#N)c2c1)(c1ccc(F)cc1)c1cn(C2CC2)nn1 [Example 934, (S)-8-chloro-4-((3-chloro-2-cyanophenyl)amino)-6-(((1-cyclopropyl-1H-1,2,3-triazol-4-yl)(4-fluorophenyl)methyl-d)amino)quinoline-3-carbonitrile] |  |  | 0.371 | ≥ 1 |
| [2H][C@](Nc1cc(Cl)c2ncc(C#N)c(Nc3cccc(Cl)c3S(C)(=O)=O)c2c1)(c1ccc(F)cc1)c1cn(C2CC2)nn1 [Example 935, (S)-8-chloro-4-((3-chloro-2-(methylsulfonyl)phenyl)amino)-6-(((1-cyclopropyl-1H-1,2,3-triazol-4-yl)(4-fluorophenyl)methyl-d)amino)quinoline-3-carbonitrile] |  |  | ≥ 10 | ≥ 1 |
| [2H][C@](Nc1cc(Cl)c2ncc(C#N)c(NCC(C)(C)C)c2c1)(c1ccc(Cl)cc1)c1cn(C2CC2)nn1 [Example 936, (S)-8-chloro-6-(((4-chlorophenyl)(1-cyclopropyl-1H-1,2,3-triazol-4-yl)methyl-d)amino)-4-(neopentylamino) quinoline-3-carbonitrile] |  |  | 0.012 | 0.222 |
| [2H][C@](Nc1cc(Br)c2ncc(C#N)c(N[C@H](CCC#N)c3ccccc3)c2c1)(c1ccc(F)cc1)c1cn(C2CC2)nn1 [Example 937, 8-bromo-4-(((R)-3-cyano-1-phenylpropyl)amino)-6-(((S)-(1-cyclopropyl-1H-1,2,3-triazol-4-yl)(4-fluorophenyl)methyl-d)amino)quinoline-3-carbonitrile] |  |  | 0.003 | 0.035 |
| [2H][C@](Nc1cc(Cl)c2ncc(C#N)c(N[C@H](CCC#N)c3ccccc3)c2c1)(c1ccc(F)cc1)c1cn(C2(C(F)(F)F)CC2)nn1 [Example 938, 8-chloro-4-(((R)-3-cyano-1-phenylpropyl)amino)-6-(((S)-(4-fluorophenyl)(1-(1-(trifluoromethyl)cyclopropyl)-1H-1,2,3-triazol-4-yl)methyl-d)amino)quinoline-3-carbonitrile] |  |  | 0.006 | 0.071 |
| [2H][C@@](Nc1cc(C(C)=O)c2ncc(C#N)c(N[C@H](CCC#N)c3ccccc3)c2c1)(c1cn(C2CC2)nn1)c1ccccc1Cl [Example 939, 8-acetyl-6-(((S)-(2-chlorophenyl)(1-cyclopropyl-1H-1,2,3-triazol-4-yl)methyl-d)amino)-4-(((R)-3-cyano-1-phenylpropyl)amino) quinoline-3-carbonitrile] |  |  | 0.004 | 0.092 |
| CC[C@@H](Nc1c(C#N)cnc2c(Br)cc(N[C@@H](c3cccc(-c4ncco4)c3)c3cn(C4CC4)nn3)cc12)c1ccccc1 [Example 940, 8-bromo-6-(((S)-(1-cyclopropyl-1H-1,2,3-triazol-4-yl)(3-(oxazol-2-yl)phenyl)methyl)amino)-4-(((R)-1-phenylpropyl)amino) quinoline-3-carbonitrile] |  |  | 0.004 | 0.144 |
| CC[C@@H](Nc1c(C#N)cnc2c(C#N)cc(N[C@@H](c3cccc(-c4ncco4)c3)c3cn(C4CC4)nn3)cc12)c1ccccc1 [Example 941, 6-(((S)-(1-cyclopropyl-1H-1,2,3-triazol-4-yl) (3-(oxazol-2-yl)phenyl)methyl)amino)-4-(((R)-1-phenylpropyl)amino) quinoline-3,8-dicarbonitrile] |  |  | 0.001 | 0.052 |
| CC[C@@H](Nc1c(C#N)cnc2c(C#N)cc(N[C@@H](c3cccc(C(N)=O)c3)c3cn(C4CC4)nn3)cc12)c1ccccc1 [Example 942, 3-((S)-(1-cyclopropyl-1H-1,2,3-triazol-4-yl) ((3,8-dicyano-4-(((R)-1-phenylpropyl)amino)quinolin-6-yl)amino)methyl)benzamide] |  |  | 0.001 | 0.141 |
| CC[C@@H](Nc1c(C#N)cnc2c(C#N)cc(N[C@@H](c3cccc(C(=O)N4CC(F)(F)C4)c3)c3cn(C4CC4)nn3)cc12)c1ccccc1 [Example 943, 6-(((S)-(1-cyclopropyl-1H-1,2,3-triazol-4-yl)(3-(3,3-difluoroazetidine-1-carbonyl)phenyl)methyl)amino)-4-(((R)-1-phenylpropyl)amino)quinoline-3,8-dicarbonitrile] |  |  | 0.004 | 0.093 |
| CC[C@@H](Nc1c(C#N)cnc2c(Br)cc(N[C@@H](c3cccc(C(N)=O)c3)c3cn(C4CC4)nn3)cc12)c1ccccc1 [Example 944, 3-((S)-((8-bromo-3-cyano-4-(((R)-1-phenylpropyl)amino)quinolin-6-yl)amino)(1-cyc1opropyl-1H-1,2,3-triazol-4-yl)methyl)benzamide] |  |  | 0.001 | 0.051 |

— US10316017B2, “COT modulators and methods of use thereof” (Gilead Sciences, Inc., priority 2015, dated 2019)
